The values that follow come from ChEMBL document CHEMBL1201862, “PubChem BioAssay data set” (2004).

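Assay format: 96-well plates, 48-hour exposure. Here, GI50 denotes the concentration required for 50% inhibition of growth.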 The source made the active and inactive calls. Cut-off read from the data, not from the text of the source: active = GI50 up to about 1.1 µM and inactive = higher.

Test systems include 786-0; A498; ACHN; COLO 205; HCC 2998; HT-29; K562; M14; MCF7; NCI-H460; NCI/ADR-RES; OVCAR-5; RXF 393; SK-MEL-28; SNB-75; SR; T47D; U-251; UACC-62.
Common to all, as to assay: inhibition of tumour cell growth, NCI panel, 48 h

With `C1CN(C23OC4(N5CCOCC5)C5C6CC(C7C6C4C72)C53)CCO1` (configuration not stated), the GI50 in the assay with 786-0 was > 100 µM (inactive); with A498 it was > 100 µM (inactive); in the assay on ACHN, > 31.6 µM (inactive); in the assay with COLO 205 it was > 100 µM (inactive); in the assay on HCC 2998 it was > 100 µM (inactive); in the assay on HT-29, > 100 µM (inactive). In addition, the GI50 in the assay on K562, in the assay with M14, with MCF7, in the assay with NCI-H460, in the assay on NCI/ADR-RES and with OVCAR-5 was > 100 µM (inactive) in each case. Moreover, the GI50 in the assay on RXF 393 was > 100 µM (inactive); in the assay with SK-MEL-28, > 100 µM (inactive); in the assay on SNB-75, > 70.8 µM (inactive); in the assay with SR it was > 100 µM (inactive); in the assay on T47D it was > 100 µM (inactive); in the assay with U-251 it was > 100 µM (inactive). The GI50 with UACC-62 is > 100 µM (inactive).
`O=[N+]([O-])c1cc(Cl)cc2cc(Br)cnc12`: the GI50 in the assay on 786-0 was 21.4 µM (inactive); with A498, 23.6 µM (inactive); in the assay on ACHN, > 31.6 µM (inactive); in the assay with COLO 205 it was > 31.6 µM (inactive); with HCC 2998 it was > 31.6 µM (inactive); in the assay on HT-29, > 31.6 µM (inactive). Further, the GI50 in the assay on K562, in the assay with M14, in the assay with MCF7, with NCI-H460, with NCI/ADR-RES and in the assay with OVCAR-5 was > 31.6 µM (inactive) throughout. In addition, the GI50 in the assay on RXF 393 was > 31.6 µM (inactive); in the assay on SK-MEL-28 it was > 31.6 µM (inactive); in the assay with SNB-75, > 31.6 µM (inactive); with SR, > 31.6 µM (inactive); with T47D, > 31.6 µM (inactive); in the assay on U-251, 20.1 µM (inactive). Further, the GI50 in the assay with UACC-62 was 23.2 µM (inactive).
For the compound `CC1(Br)Cc2ccccc2C1=O` (configuration not stated), the GI50 in the assay on 786-0 is 2.15 µM (inactive); in the assay on A498, 21.9 µM (inactive); in the assay with ACHN, 4.17 µM (inactive); in the assay on COLO 205, 4.35 µM (inactive); in the assay with HCC 2998 it was > 100 µM (inactive); in the assay with HT-29, 4.36 µM (inactive). Also, the GI50 in the assay on K562 was 3.33 µM (inactive); in the assay on M14, 3.09 µM (inactive); in the assay with MCF7 it was 3.73 µM (inactive); with NCI-H460 it was > 10 µM (inactive); with NCI/ADR-RES it was 13.1 µM (inactive); in the assay with OVCAR-5, 3.43 µM (inactive). The GI50 is > 10 µM (inactive) with RXF 393; 2.29 µM (inactive) with SK-MEL-28; 13 µM (inactive) in the assay on SNB-75; 2.45 µM (inactive) in the assay with SR; 9.31 µM (inactive) with T47D; 4.59 µM (inactive) in the assay with U-251. The GI50 in the assay on UACC-62 is 1.29 µM (inactive).
For the compound `CCOC(=O)c1[nH]c(Br)c(-c2ccc(Br)cc2)c1Br`, the GI50 in the assay with 786-0 was 0.445 µM (active); with A498, 1.61 µM (inactive); in the assay on ACHN it was 1.13 µM (inactive); with COLO 205, 0.385 µM (active); with HCC 2998, 5.79 µM (inactive); in the assay on HT-29, 0.327 µM (active). Besides, the GI50 in the assay with K562 was 0.851 µM (active); in the assay on M14 it was 0.386 µM (active); in the assay with MCF7 it was 1.87 µM (inactive); in the assay with NCI-H460, 5.25 µM (inactive); with NCI/ADR-RES it was 0.201 µM (active); in the assay with OVCAR-5, 2.5 µM (inactive). Further, the GI50 with RXF 393 is 1.23 µM (inactive); with SK-MEL-28 it was 0.366 µM (active); in the assay on SNB-75, 0.327 µM (active); in the assay on SR, 0.914 µM (active); in the assay with T47D, 2.39 µM (inactive); with U-251, 0.454 µM (active). The GI50 in the assay with UACC-62 is 0.234 µM (active).
In the case of `C=C1CC/C=C(\C)C(=O)C[C@@H]2[C@@H]1CC2(C)C` [BUDDLEDIN C], the GI50 with 786-0 was 0.975 µM (active); with A498, 8.59 µM (inactive); with ACHN, 2.18 µM (inactive); in the assay with COLO 205 it was 1.8 µM (inactive); with HCC 2998, 3.4 µM (inactive); in the assay with HT-29, 2.44 µM (inactive). Besides, the GI50 with K562 was 1.82 µM (inactive); with M14, 3.69 µM (inactive); in the assay with MCF7 it was 0.561 µM (active); in the assay on NCI-H460 it was 2.62 µM (inactive); in the assay on NCI/ADR-RES, 4.53 µM (inactive); with OVCAR-5, 9.46 µM (inactive). Also, the GI50 in the assay with RXF 393 was 1.85 µM (inactive); in the assay on SK-MEL-28, 2.75 µM (inactive); in the assay on SNB-75, 10.6 µM (inactive); in the assay on SR it was 0.0578 µM (active); with T47D, 2.31 µM (inactive); in the assay on U-251, 6.79 µM (inactive). Besides, in the assay with UACC-62, the GI50 is 5.96 µM (inactive).
Consider `CC(C)(Cl)C(Br)CC/C(=C/CCl)CBr.CC(C)(Cl)C(Br)CC/C(=C\CCl)CBr` (configuration not stated), for which the GI50 was 1.86 µM (inactive) in the assay with 786-0; 4.94 µM (inactive) in the assay with A498; 2.77 µM (inactive) in the assay with ACHN; 2.4 µM (inactive) in the assay on COLO 205; 1.58 µM (inactive) in the assay on HCC 2998; 1.85 µM (inactive) with HT-29. Moreover, the GI50 in the assay on K562 is 1.72 µM (inactive); in the assay with M14, 1.9 µM (inactive); with MCF7, 0.733 µM (active); with NCI-H460, 2.02 µM (inactive); in the assay with NCI/ADR-RES, 3.23 µM (inactive); in the assay with OVCAR-5 it was 8.89 µM (inactive). Besides, the GI50 is 2.62 µM (inactive) in the assay on RXF 393; 2.06 µM (inactive) in the assay on SK-MEL-28; 2.9 µM (inactive) in the assay on SNB-75; 1.29 µM (inactive) in the assay on SR; 1.08 µM (active) with T47D; 2.21 µM (inactive) in the assay on U-251. For the same compound, in the assay with UACC-62, the GI50 is 1.93 µM (inactive).
With `O=C(O)CN1CCN2CCOCCN(CC1)CCN(CC(=O)O)CC2`, the GI50 in the assay with 786-0, in the assay with A498, in the assay on ACHN, in the assay on COLO 205, with HCC 2998 and with HT-29 was > 100 µM (inactive) in each case. Moreover, the GI50 in the assay with K562, in the assay on M14, in the assay with MCF7, in the assay on NCI-H460, with NCI/ADR-RES and with OVCAR-5 was > 100 µM (inactive) throughout. Also, the GI50 with RXF 393, in the assay with SK-MEL-28, with SNB-75, in the assay on SR, in the assay with T47D and in the assay with U-251 was > 100 µM (inactive) in each case. The GI50 in the assay with UACC-62 was > 100 µM (inactive).
For `O=C(OCc1ccccc1)c1ccc(NCc2cc(O)ccc2O)cc1`, the GI50 in the assay on 786-0 is 1.11 µM (active); with A498 it was 1.09 µM (active); in the assay with ACHN it was 1.43 µM (inactive); with COLO 205 it was 1.47 µM (inactive); in the assay with HCC 2998, 2.15 µM (inactive); in the assay on HT-29 it was 6.24 µM (inactive). Moreover, the GI50 in the assay with K562 is 1.29 µM (inactive); in the assay on M14, 1.91 µM (inactive); in the assay on MCF7, 2.01 µM (inactive); with NCI-H460 it was 3.42 µM (inactive); in the assay on NCI/ADR-RES, 1.47 µM (inactive); in the assay on OVCAR-5, 3.85 µM (inactive). Further, the GI50 in the assay on RXF 393 is 1.07 µM (active); in the assay with SK-MEL-28 it was 1.63 µM (inactive); in the assay on SNB-75, 0.906 µM (active); with SR, 0.247 µM (active); with T47D, 1.51 µM (inactive); in the assay on U-251, 1.29 µM (inactive). Moreover, the GI50 in the assay on UACC-62 was 1.56 µM (inactive).
